Test results published in ChEMBL document CHEMBL3132769, “Fragment growing to retain or alter the selectivity of anchored kinase hinge-binding fragments” (Medchemcomm, 2014).

How the values were obtained:
[1] = biological target: Calcium/calmodulin-dependent protein kinase type II subunit delta (Homo sapiens) (UniProt Q13557); experiment: Inhibition of human full length CAMK2D expressed in baculovirus assessed as substrate phosphorylation using fluorescence-labelled peptides as substrate at 95 uM after 90 mins by microfluidic peptide phosphorylation assay
[2] = biological target: Ribosomal protein S6 kinase alpha-3 (Homo sapiens) (UniProt P51812); experiment: Inhibition of human full length RSK2 expressed in baculovirus assessed as substrate phosphorylation using fluorescence-labelled peptides as substrate at 95 uM after 90 mins by microfluidic peptide phosphorylation assay
[3] = biological target: Mitogen-activated protein kinase 14 (Homo sapiens) (UniProt Q16539); experiment: Inhibition of human truncated p38 alpha expressed in Escherichia coli cell assessed as substrate phosphorylation using fluorescence-labelled peptides as substrate at 8 uM after 90 mins by microfluidic peptide phosphorylation assay
[4] = biological target: RAC-alpha serine/threonine-protein kinase (Homo sapiens) (UniProt P31749); experiment: Inhibition of human AKT1 catalytic domain expressed in baculovirus assessed as substrate phosphorylation using fluorescence-labelled peptides as substrate at 8 uM after 90 mins by microfluidic peptide phosphorylation assay
[5] = biological target: MAP kinase p38 (Homo sapiens) (UniProt O15264+Q15759+Q16539+P53778); experiment: Inhibition of human full length p38 beta2 expressed in Escherichia coli cell assessed as substrate phosphorylation using fluorescence-labelled peptides as substrate at 8 uM after 90 mins by microfluidic peptide phosphorylation assay
[6] = biological target: Glycogen synthase kinase-3 beta (Homo sapiens) (UniProt P49841); experiment: Inhibition of human full length GSK-3 beta expressed in baculovirus assessed as substrate phosphorylation using fluorescence-labelled peptides as substrate at 2 uM after 90 mins by microfluidic peptide phosphorylation assay
[7] = biological target: Protein kinase C theta type (Homo sapiens) (UniProt Q04759); experiment: Inhibition of human truncated PKC theta expressed in baculovirus assessed as substrate phosphorylation using fluorescence-labelled peptides as substrate at 2 uM after 90 mins by microfluidic peptide phosphorylation assay
[8] = system: Tyrosine-protein kinase ABL1 (Homo sapiens), P00519 [T315I]; experiment: Inhibition of human truncated ABL T315I mutant expressed in baculovirus assessed as substrate phosphorylation using fluorescence-labelled peptides as substrate at 2 uM after 90 mins by microfluidic peptide phosphorylation assay
[9] = biological target: Protein kinase C delta type (Homo sapiens) (UniProt Q05655); experiment: Inhibition of human truncated PKC delta expressed in baculovirus assessed as substrate phosphorylation using fluorescence-labelled peptides as substrate at 1000 uM after 90 mins by microfluidic peptide phosphorylation assay
[10] = biological target: RAF proto-oncogene serine/threonine-protein kinase (Homo sapiens) (UniProt P04049); experiment: Inhibition of human truncated c-Raf expressed in baculovirus assessed as substrate phosphorylation using fluorescence-labelled peptides as substrate at 1000 uM after 90 mins by microfluidic peptide phosphorylation assay
[11] = biological target: MAP/microtubule affinity-regulating kinase 3 (Homo sapiens) (UniProt P27448); experiment: Inhibition of human full length c-TAK1 expressed in Escherichia coli cell assessed as substrate phosphorylation using fluorescence-labelled peptides as substrate at 0.06 uM after 90 mins by microfluidic peptide phosphorylation assay
[12] = biological target: Aurora kinase B (Homo sapiens) (UniProt Q96GD4); conditions: 0.1 uM
Description: Inhibition of human full length AurB expressed in baculovirus assessed as substrate phosphorylation using fluorescence-labelled peptides as substrate at 0.1 uM after 90 mins by microfluidic peptide phosphorylation assay

[13] = biological target: T1, Serine/threonine-protein kinase Sgk1 (Homo sapiens) (UniProt O00141); experiment: Inhibition of human truncated SGK1 expressed in baculovirus assessed as substrate phosphorylation using fluorescence-labelled peptides as substrate at […] after 90 mins by microfluidic peptide phosphorylation assay
T1 sequence (whole entry): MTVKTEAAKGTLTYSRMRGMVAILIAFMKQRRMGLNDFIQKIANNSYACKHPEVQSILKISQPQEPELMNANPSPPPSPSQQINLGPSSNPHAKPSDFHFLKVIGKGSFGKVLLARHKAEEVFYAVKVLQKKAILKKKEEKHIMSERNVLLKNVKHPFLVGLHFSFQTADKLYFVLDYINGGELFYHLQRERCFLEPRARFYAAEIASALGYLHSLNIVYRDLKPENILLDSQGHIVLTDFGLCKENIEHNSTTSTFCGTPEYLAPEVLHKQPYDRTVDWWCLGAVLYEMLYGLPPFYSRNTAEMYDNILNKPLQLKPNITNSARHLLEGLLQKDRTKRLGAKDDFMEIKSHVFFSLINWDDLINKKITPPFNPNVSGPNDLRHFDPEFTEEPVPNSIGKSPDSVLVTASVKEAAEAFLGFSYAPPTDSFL

[14] = biological target: Tyrosine-protein kinase Lck (Homo sapiens) (UniProt P06239); experiment: Inhibition of human full length LCK expressed in baculovirus assessed as substrate phosphorylation using fluorescence-labelled peptides as substrate at 420 uM after 90 mins by microfluidic peptide phosphorylation assay
[15] = biological target: Tyrosine-protein kinase Lyn (Homo sapiens) (UniProt P07948); experiment: Inhibition of human full length LYN expressed in baculovirus assessed as substrate phosphorylation using fluorescence-labelled peptides as substrate at 9 uM after 90 mins by microfluidic peptide phosphorylation assay
[16] = biological target: T2, Calcium/calmodulin-dependent protein kinase type IV (Homo sapiens) (UniProt Q16566); experiment: Inhibition of human full length CAMK4 expressed in baculovirus assessed as substrate phosphorylation using fluorescence-labelled peptides as substrate at 70 uM after 90 mins by microfluidic peptide phosphorylation assay
T2 sequence (whole entry): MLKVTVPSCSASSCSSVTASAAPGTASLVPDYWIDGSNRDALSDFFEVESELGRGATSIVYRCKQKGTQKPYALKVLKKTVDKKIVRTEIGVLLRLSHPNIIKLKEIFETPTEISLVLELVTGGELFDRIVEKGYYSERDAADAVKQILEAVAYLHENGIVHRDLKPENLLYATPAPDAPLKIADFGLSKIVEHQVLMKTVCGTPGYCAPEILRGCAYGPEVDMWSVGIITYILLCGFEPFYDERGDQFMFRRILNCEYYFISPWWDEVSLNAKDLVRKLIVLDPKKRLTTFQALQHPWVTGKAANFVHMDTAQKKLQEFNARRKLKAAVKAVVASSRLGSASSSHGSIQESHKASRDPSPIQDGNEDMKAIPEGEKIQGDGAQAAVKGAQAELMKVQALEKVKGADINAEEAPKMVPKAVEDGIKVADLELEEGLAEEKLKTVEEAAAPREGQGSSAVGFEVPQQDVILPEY

[17] = biological target: Tyrosine-protein kinase Fer (Homo sapiens) (UniProt P16591); experiment: Inhibition of human FER catalytic domain expressed in baculovirus assessed as substrate phosphorylation using fluorescence-labelled peptides as substrate at 70 uM after 90 mins by microfluidic peptide phosphorylation assay
[18] = biological target: Insulin-like growth factor 1 receptor (Homo sapiens) (UniProt P08069); experiment: Inhibition of human IGF1R catalytic domain expressed in baculovirus assessed as substrate phosphorylation using fluorescence-labelled peptides as substrate at 70 uM after 90 mins by microfluidic peptide phosphorylation assay
[19] = biological target: Insulin receptor (Homo sapiens) (UniProt P06213); experiment: Inhibition of human INSR catalytic domain expressed in baculovirus assessed as substrate phosphorylation using fluorescence-labelled peptides as substrate at 70 uM after 90 mins by microfluidic peptide phosphorylation assay

Sequence of Tyrosine-protein kinase Lck (Homo sapiens) (P06239 2-509 limits assumed): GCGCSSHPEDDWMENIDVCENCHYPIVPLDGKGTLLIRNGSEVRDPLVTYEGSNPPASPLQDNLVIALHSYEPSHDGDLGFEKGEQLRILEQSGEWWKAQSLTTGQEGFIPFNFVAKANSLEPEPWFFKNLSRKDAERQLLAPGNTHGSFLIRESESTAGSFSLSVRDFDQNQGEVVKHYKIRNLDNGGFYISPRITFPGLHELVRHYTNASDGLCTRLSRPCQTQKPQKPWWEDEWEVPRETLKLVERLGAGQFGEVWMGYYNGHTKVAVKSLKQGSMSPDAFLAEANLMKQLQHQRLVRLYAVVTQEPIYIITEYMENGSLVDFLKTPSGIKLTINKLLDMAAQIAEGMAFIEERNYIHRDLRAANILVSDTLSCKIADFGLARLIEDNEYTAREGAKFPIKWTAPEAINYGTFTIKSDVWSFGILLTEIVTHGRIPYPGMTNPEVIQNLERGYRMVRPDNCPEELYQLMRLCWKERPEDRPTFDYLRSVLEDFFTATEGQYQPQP
Sequence of Tyrosine-protein kinase Fer (Homo sapiens) (P16591 whole entry, looked up, the tested form may be a part): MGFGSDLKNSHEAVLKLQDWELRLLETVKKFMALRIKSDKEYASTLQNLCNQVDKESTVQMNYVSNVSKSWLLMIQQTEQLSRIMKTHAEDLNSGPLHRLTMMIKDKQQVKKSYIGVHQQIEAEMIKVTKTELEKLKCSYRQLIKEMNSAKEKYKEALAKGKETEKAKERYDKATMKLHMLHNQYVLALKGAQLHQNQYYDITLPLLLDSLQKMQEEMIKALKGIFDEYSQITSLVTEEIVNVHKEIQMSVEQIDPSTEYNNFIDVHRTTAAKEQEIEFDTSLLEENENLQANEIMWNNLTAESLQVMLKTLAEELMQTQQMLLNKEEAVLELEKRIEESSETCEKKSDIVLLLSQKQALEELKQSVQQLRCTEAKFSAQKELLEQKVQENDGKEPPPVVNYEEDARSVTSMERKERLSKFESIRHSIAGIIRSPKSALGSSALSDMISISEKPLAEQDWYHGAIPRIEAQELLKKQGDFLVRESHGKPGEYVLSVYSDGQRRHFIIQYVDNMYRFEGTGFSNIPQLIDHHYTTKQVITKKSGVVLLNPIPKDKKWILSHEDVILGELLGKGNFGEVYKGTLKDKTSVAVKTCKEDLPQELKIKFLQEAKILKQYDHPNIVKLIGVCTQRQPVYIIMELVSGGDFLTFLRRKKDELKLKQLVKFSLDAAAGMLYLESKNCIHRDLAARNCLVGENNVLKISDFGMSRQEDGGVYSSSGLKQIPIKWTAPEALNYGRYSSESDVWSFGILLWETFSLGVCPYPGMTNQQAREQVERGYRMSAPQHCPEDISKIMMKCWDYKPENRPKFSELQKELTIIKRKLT
Sequence of Glycogen synthase kinase-3 beta (Homo sapiens) (P49841 whole entry, looked up, the tested form may be a part): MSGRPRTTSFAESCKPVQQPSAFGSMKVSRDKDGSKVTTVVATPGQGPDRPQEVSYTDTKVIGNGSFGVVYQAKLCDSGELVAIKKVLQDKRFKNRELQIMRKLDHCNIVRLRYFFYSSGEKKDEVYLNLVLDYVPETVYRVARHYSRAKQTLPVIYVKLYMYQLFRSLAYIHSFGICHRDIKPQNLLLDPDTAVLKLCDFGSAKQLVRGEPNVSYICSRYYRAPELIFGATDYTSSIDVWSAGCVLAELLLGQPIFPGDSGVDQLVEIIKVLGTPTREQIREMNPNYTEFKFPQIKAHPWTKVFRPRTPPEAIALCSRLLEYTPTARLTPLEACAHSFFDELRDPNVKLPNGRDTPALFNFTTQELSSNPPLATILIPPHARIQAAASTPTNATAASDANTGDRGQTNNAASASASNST
Sequence of Aurora kinase B (Homo sapiens) (Q96GD4 whole entry, the tested form may be a part): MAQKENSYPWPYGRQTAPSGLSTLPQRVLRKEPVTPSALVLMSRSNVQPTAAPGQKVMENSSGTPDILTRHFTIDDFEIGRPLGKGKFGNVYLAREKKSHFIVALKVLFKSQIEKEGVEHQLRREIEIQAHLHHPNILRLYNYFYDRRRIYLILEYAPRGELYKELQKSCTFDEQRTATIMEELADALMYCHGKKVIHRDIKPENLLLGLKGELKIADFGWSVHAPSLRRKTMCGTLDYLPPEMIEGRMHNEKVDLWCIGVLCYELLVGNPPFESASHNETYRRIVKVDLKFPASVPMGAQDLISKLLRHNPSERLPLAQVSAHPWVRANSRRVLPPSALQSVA
Sequence of Protein kinase C delta type (Homo sapiens) (Q05655 whole entry, looked up, the tested form may be a part): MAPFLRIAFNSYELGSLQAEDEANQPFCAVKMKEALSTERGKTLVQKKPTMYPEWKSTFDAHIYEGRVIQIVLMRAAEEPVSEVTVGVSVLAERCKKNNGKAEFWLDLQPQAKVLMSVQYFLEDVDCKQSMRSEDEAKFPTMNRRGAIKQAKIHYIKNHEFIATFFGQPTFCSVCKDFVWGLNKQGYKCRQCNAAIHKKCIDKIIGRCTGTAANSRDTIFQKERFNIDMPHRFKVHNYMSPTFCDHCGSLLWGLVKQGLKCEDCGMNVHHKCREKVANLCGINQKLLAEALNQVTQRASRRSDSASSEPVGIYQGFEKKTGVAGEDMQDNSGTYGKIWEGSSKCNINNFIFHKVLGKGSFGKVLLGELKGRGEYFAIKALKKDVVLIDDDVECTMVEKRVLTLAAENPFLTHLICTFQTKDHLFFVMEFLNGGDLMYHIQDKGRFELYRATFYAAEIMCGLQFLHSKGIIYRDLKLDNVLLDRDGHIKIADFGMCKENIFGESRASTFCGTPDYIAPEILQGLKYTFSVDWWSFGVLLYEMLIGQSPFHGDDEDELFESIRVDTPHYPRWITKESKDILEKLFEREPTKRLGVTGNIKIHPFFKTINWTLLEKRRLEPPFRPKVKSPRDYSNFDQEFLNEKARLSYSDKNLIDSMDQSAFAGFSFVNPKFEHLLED
Sequence of RAF proto-oncogene serine/threonine-protein kinase (Homo sapiens) (P04049 whole entry, the tested form may be a part): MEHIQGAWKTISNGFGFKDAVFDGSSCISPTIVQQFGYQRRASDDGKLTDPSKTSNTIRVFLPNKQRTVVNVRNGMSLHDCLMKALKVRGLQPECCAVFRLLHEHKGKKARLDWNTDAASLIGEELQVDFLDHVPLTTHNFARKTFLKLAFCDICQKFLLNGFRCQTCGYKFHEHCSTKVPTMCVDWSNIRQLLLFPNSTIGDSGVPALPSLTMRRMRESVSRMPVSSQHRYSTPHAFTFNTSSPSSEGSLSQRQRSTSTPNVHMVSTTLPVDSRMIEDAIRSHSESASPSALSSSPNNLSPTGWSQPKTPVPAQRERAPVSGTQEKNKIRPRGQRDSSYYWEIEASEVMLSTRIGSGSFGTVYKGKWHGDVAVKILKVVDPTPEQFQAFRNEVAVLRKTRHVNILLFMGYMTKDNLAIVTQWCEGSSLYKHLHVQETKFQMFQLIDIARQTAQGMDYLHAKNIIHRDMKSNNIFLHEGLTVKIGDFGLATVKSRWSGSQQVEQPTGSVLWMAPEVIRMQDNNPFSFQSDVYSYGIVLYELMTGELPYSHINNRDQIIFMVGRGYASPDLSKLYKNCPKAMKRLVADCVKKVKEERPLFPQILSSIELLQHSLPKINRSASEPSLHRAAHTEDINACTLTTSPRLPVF
Sequence of Ribosomal protein S6 kinase alpha-3 (Homo sapiens) (P51812 whole entry, the tested form may be a part): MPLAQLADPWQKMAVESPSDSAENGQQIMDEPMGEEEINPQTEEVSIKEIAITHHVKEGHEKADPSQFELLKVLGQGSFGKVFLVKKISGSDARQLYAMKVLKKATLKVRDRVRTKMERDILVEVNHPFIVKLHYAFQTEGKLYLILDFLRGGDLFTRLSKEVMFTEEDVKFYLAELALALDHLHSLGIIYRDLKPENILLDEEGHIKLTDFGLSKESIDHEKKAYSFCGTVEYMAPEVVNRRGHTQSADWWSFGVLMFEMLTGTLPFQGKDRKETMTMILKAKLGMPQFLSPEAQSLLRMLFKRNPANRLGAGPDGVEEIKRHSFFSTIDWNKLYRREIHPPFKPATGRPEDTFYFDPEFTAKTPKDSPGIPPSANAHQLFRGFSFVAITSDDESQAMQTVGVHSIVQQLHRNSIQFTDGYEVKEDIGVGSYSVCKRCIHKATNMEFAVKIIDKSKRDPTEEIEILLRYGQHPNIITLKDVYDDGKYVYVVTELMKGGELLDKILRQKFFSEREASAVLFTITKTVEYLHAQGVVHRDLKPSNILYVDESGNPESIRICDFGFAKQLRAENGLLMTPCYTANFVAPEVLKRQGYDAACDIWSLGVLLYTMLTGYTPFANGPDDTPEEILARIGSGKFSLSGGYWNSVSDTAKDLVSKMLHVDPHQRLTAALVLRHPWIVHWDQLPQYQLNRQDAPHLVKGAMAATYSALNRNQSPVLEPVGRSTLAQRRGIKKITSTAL
Sequence of Protein kinase C theta type (Homo sapiens) (Q04759 whole entry, looked up, the tested form may be a part): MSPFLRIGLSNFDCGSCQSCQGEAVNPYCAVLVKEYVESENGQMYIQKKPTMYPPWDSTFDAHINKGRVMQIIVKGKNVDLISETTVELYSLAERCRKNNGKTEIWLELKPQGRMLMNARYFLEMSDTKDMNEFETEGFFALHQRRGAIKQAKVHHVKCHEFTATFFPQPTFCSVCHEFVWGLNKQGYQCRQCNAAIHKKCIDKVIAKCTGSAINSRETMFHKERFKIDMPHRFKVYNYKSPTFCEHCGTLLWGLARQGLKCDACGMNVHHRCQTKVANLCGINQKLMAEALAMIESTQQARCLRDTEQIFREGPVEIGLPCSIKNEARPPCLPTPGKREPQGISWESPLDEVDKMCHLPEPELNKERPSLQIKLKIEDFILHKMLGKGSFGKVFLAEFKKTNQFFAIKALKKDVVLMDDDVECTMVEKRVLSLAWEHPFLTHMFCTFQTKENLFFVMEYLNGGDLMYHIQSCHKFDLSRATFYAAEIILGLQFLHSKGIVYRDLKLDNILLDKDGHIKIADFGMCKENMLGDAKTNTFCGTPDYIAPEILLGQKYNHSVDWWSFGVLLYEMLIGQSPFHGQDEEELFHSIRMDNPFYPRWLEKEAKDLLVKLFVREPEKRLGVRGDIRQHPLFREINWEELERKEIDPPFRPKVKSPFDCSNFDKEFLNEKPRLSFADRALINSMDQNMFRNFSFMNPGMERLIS

NCCc1ccc(-c2ncnc3[nH]cnc23)cc1
inhibition [1]: 45.5%
inhibition [2]: 87.5%

NCC1CCN(c2ncnc3[nH]ccc23)CC1
inhibition [3]: 7%
inhibition [4]: 96%
inhibition [5]: 12.5%

NC1CCN(c2ncnc3[nH]ccc23)CC1
inhibition [6]: 5%
inhibition [7]: 13%
inhibition [8]: 1%

c1cnc2[nH]ccc2c1
inhibition [9]: 45.5%
inhibition [10]: 20%

NC1(Cc2ccc(Cl)cc2)CCN(c2ncnc3[nH]ccc23)CC1
inhibition [11]: 0%

C[C@H](CN(C)C)Oc1nc(Nc2cc3cccc(Cl)c3cn2)cnc1C#N
inhibition [12]: 0%

COC(=O)c1cnc(Nc2cnc(C#N)cn2)cc1NCC1CCNCC1
inhibition [13]: 4.5%

c1nc(N2CCOCC2)c2nc[nH]c2n1
inhibition [14]: 67.5%

NCC1CN(c2ncnc3[nH]c4cnccc4c23)CCO1 (centres undefined)
inhibition [15]: 42%

CNCc1ccc(-c2ncnc3[nH]cnc23)cc1
inhibition [16]: 77.5%
inhibition [17]: 30%
inhibition [18]: 0%
inhibition [19]: 0%
